# Results taken from paper PMC4646457 (PLoS ONE, 2015).
# Like-named read-outs stand apart in the source and are kept apart here.
# Key:
# human CYP450 enzymes = conditions: also CYP3A5, lesser extent CYP2C19; ref EGF10027 protocol, CIB RM2000/00481/06; cited from earlier work
# CYP3A = tested on: CYP3A; set-up: method as in EGF10027 protocol, CIB RM2000/00481/06; conditions: pregnane X receptor-screening assay; ref EGF10027 protocol, CIB RM2000/00481/06; cited from earlier work
# CYP3A4 = tested on: CYP3A4; set-up: method as in EGF10027 protocol, CIB RM2000/00481/06; conditions: ref EGF10027 protocol, CIB RM2000/00481/06; cited from earlier work
# [1] = set-up: method as in study EGF10003; conditions: ref study EGF10003, cited from earlier work
# [2] = ref EGF10027 protocol, CIB RM2000/00481/06, cited from earlier work
# [3] = set-up: method as in study EGF10002; conditions: ref study EGF10002, cited from earlier work
# plasma proteins = tested on: plasma proteins; set-up: method as in EGF10027 protocol, CIB RM2000/00481/06; conditions: mouse, rat, dog, rabbit and human plasma, 1 to 100 µM; ref EGF10027 protocol, CIB RM2000/00481/06; cited from earlier work
# in vivo = conditions: female, CB-17 SCID, mouse; for MRT last: MRTlast
# [4] = cited from earlier work
# [5] = set-up: method as in EGF10027 protocol, CIB RM2000/00481/06; conditions: Ames, CHO and human lymphocyte chromosome aberration, in vivo rat bone marrow; ref EGF10027 protocol, CIB RM2000/00481/06; cited from earlier work
# ErbB1 tyrosine kinase = conditions: read-out: IC50, ErbB1 tyrosine kinase; in vitro kinase assay; ref EGF10027 protocol, CIB RM2000/00481/06; cited from earlier work
# [6] = mice; ref EGF10027 protocol, CIB RM2000/00481/06; cited from earlier work
# [7] = cancer patients, once daily dosing up to 1800 mg, preliminary
# [8] = BT474 tumor, po, 100 mg/kg, 100 mg/kg BID, multiple doses
# [9] = BT474 tumor, po, 100 mg/kg, single dose
# [10] = BT474 tumor, po, 200 mg/kg, 200 mg/kg QD, multiple doses
# [11] = BT474 tumor, po, 200 mg/kg, single dose
# [12] = blood, oral, 100 mg/kg, individual animals 1-3, blood, 100 mg/kg BID
# [13] = blood, po, 100 mg/kg, 100 mg/kg BID, multiple doses
# [14] = blood, po, 100 mg/kg, single dose
# [15] = blood, po, 200 mg/kg, 200 mg/kg QD, multiple doses
# [16] = blood, po, 200 mg/kg, single dose
# [17] = kidney, oral, 100 mg/kg, single dose
# [18] = kidney, oral, 100 mg/kg, individual animals 1-3, kidney, 100 mg/kg BID
# [19] = kidney, oral, 200 mg/kg, single dose
# [20] = kidney, oral, 200 mg/kg, individual animals 1-3, kidney, 200 mg/kg QD
# [21] = kidney, po, 100 mg/kg, 100 mg/kg BID, multiple doses
# [22] = kidney, po, 200 mg/kg, 200 mg/kg QD, multiple doses
# [23] = liver, oral, 100 mg/kg, single dose
# [24] = liver, oral, 100 mg/kg, individual animals 1-3, liver, 100 mg/kg BID
# [25] = liver, oral, 200 mg/kg, single dose
# [26] = liver, oral, 200 mg/kg, individual animals 1-3, liver, 200 mg/kg QD
# [27] = liver, po, 100 mg/kg, 100 mg/kg BID, multiple doses
# [28] = liver, po, 200 mg/kg, 200 mg/kg QD, multiple doses
# [29] = tumor, oral, 100 mg/kg, individual animals 1-3, tumor, 100 mg/kg BID
# [30] = tumor, oral, 200 mg/kg, individual animals 1-3, tumor, 200 mg/kg QD
structure (smiles),measurement,setting,value
CS(=O)(=O)CCNCc1ccc(-c2ccc3ncnc(Nc4ccc(OCc5cccc(F)c5)c(Cl)c4)c3c2)o1 [lapatinib],metabolizing CYP enzymes,human CYP450 enzymes,metabolized predominantl y by CYP3A4
same,CYP3A induction,CYP3A,no abil it y to induce CYP3A
same,CYP3A4 inhibition,CYP3A4,inhibitory pot ential towards CYP3A4
same,subjects with dose-limiting toxicity (diarrhea),[1]; 900 mg BID,2 of 6
same,incidence of diarrhea,[1]; [7],18-25%
same,incidence of nausea,[1]; [7],< 10%
same,incidence of rash,[1]; [7],< 10%
same,"incidence of gastrointestinal intolerance (nausea, vomiting and diarrhea)",[1]; patients receiving twice daily dosing (900 or 750 mg),~34%
same,"AUC with 900 mg BID compared with 1800 mg once daily, higher",[1]; patients,~ two-fol d
same,NOAEL,[2]; female rats,20 mg/kg/day
same,NOAEL,[2]; male rats,60 mg/kg/day
same,generally well tolerated dose,"[2]; rats, up to 13 weeks",≤ 60 mg/kg/day
same,accumulation with once daily dosing,[3]; 100 and 175 mg doses,~50%
same,half-life,[3]; Day 1,7 h
same,plasma protein binding,plasma proteins,> 99%
same,concentration at 96 h,"in vivo; BT474 tumor, oral, 200 mg/kg, individual animals 1-3, tumor, 200 mg/kg QD",915 ng/mL
same,AUC(0-t),"in vivo; BT474 tumor, po, 100 mg/kg, AUClast, 100 mg/kg BID, multiple doses",1120 µg·h/mL
same,AUC(0-t),"in vivo; BT474 tumor, po, 100 mg/kg, AUClast, single dose",313 µg·h/mL
same,Cmax,in vivo; [8],55800 ng/mL
same,Cmax,in vivo; [9],24900 ng/mL
same,MRT last,in vivo; [8],20.5 h
same,MRT last,in vivo; [9],12.6 h
same,Tmax,in vivo; [8],4 h
same,Tmax,in vivo; [9],12 h
same,AUC(0-t),"in vivo; BT474 tumor, po, 200 mg/kg, AUClast, 200 mg/kg QD, multiple doses",1320 µg·h/mL
same,AUC(0-t),"in vivo; BT474 tumor, po, 200 mg/kg, AUClast, single dose",579 µg·h/mL
same,Cmax,in vivo; [10],79200 ng/mL
same,Cmax,in vivo; [11],44000 ng/mL
same,MRT last,in vivo; [10],18.7 h
same,MRT last,in vivo; [11],17.5 h
same,Tmax,in vivo; [10],10 h
same,Tmax,in vivo; [11],1 h
same,half-life,"in vivo; blood, liver, kidney, tumor, oral, 100 mg/kg",4 h
same,concentration at 10 h,in vivo; [12],3080 ng/mL
same,concentration at 24 h,in vivo; [12],95.2 ng/mL
same,concentration at 24 h,"in vivo; blood, oral, 200 mg/kg, individual animals 1-3, blood, 200 mg/kg QD",28 ng/mL
same,AUC(0-t),"in vivo; blood, po, 100 mg/kg, AUClast, 100 mg/kg BID, multiple doses",102 µg·h/mL
same,AUC(0-t),"in vivo; blood, po, 100 mg/kg, AUClast, single dose",46.7 µg·h/mL
same,Cmax,in vivo; [13],9350 ng/mL
same,Cmax,in vivo; [14],7040 ng/mL
same,MRT last,in vivo; [13],6.9 h
same,MRT last,in vivo; [14],6.3 h
same,Tmax,in vivo; [13],1 h
same,Tmax,in vivo; [14],1 h
same,AUC(0-t),"in vivo; blood, po, 200 mg/kg, AUClast, 200 mg/kg QD, multiple doses",152 µg·h/mL
same,AUC(0-t),"in vivo; blood, po, 200 mg/kg, AUClast, single dose",88.2 µg·h/mL
same,Cmax,in vivo; [15],16100 ng/mL
same,Cmax,in vivo; [16],8220 ng/mL
same,MRT last,in vivo; [15],7.3 h
same,MRT last,in vivo; [16],8.5 h
same,Tmax,in vivo; [15],10 h
same,Tmax,in vivo; [16],12 h
same,AUC(0-t),"in vivo; kidney, oral, 100 mg/kg, AUClast, single dose",267 µg·h/mL
same,Cmax,in vivo; [17],29800 ng/mL
same,concentration at 1 h,in vivo; [18],57200 ng/mL
same,concentration at 4 h,in vivo; [18],72300 ng/mL
same,concentration at 48 h,in vivo; [18],114 ng/mL
same,concentration at 72 h,in vivo; [18],94.5 ng/mL
same,concentration at 96 h,in vivo; [18],47.9 ng/mL
same,MRT last,in vivo; [17],7.7 h
same,Tmax,in vivo; [17],1 h
same,AUC(0-t),"in vivo; kidney, oral, 200 mg/kg, AUClast, single dose",633 µg·h/mL
same,Cmax,in vivo; [19],64900 ng/mL
same,concentration at 1 h,in vivo; [20],48300 ng/mL
same,concentration at 24 h,in vivo; [20],144 ng/mL
same,concentration at 72 h,in vivo; [20],77.3 ng/mL
same,concentration at 96 h,in vivo; [20],49.9 ng/mL
same,MRT last,in vivo; [19],9 h
same,Tmax,in vivo; [19],12 h
same,AUC(0-t),"in vivo; kidney, po, 100 mg/kg, AUClast, 100 mg/kg BID, multiple doses",1170 µg·h/mL
same,Cmax,in vivo; [21],98500 ng/mL
same,MRT last,in vivo; [21],8.4 h
same,Tmax,in vivo; [21],10 h
same,AUC(0-t),"in vivo; kidney, po, 200 mg/kg, AUClast, 200 mg/kg QD, multiple doses",1320 µg·h/mL
same,Cmax,in vivo; [22],136000 ng/mL
same,MRT last,in vivo; [22],8 h
same,Tmax,in vivo; [22],10 h
same,AUC(0-t),"in vivo; liver, oral, 100 mg/kg, AUClast, single dose",414 µg·h/mL
same,Cmax,in vivo; [23],46700 ng/mL
same,concentration at 1 h,in vivo; [24],107000 ng/mL
same,concentration at 4 h,in vivo; [24],90700 ng/mL
same,concentration at 48 h,in vivo; [24],193 ng/mL
same,concentration at 72 h,in vivo; [24],121 ng/mL
same,concentration at 96 h,in vivo; [24],66.9 ng/mL
same,MRT last,in vivo; [23],7.5 h
same,Tmax,in vivo; [23],1 h
same,AUC(0-t),"in vivo; liver, oral, 200 mg/kg, AUClast, single dose",1050 µg·h/mL
same,Cmax,in vivo; [25],110000 ng/mL
same,concentration at 1 h,in vivo; [26],137000 ng/mL
same,concentration at 4 h,in vivo; [26],223000 ng/mL
same,concentration at 48 h,in vivo; [26],173 ng/mL
same,concentration at 72 h,in vivo; [26],101 ng/mL
same,concentration at 96 h,in vivo; [26],98.3 ng/mL
same,MRT last,in vivo; [25],9.4 h
same,Tmax,in vivo; [25],12 h
same,AUC(0-t),"in vivo; liver, po, 100 mg/kg, AUClast, 100 mg/kg BID, multiple doses",1380 µg·h/mL
same,Cmax,in vivo; [27],119000 ng/mL
same,MRT last,in vivo; [27],8 h
same,Tmax,in vivo; [27],10 h
same,AUC(0-t),"in vivo; liver, po, 200 mg/kg, AUClast, 200 mg/kg QD, multiple doses",2110 µg·h/mL
same,Cmax,in vivo; [28],240000 ng/mL
same,MRT last,in vivo; [28],8.4 h
same,Tmax,in vivo; [28],10 h
same,half-life,"in vivo; tumor, oral",15.6 h
same,concentration at 4 h,in vivo; [29],51400 ng/mL
same,concentration at 10 h,in vivo; [29],59200 ng/mL
same,concentration at 4 h,in vivo; [30],47400 ng/mL
same,concentration at 10 h,in vivo; [30],71800 ng/mL
same,AUC(0-t),"in vivo; tumor, po, 100 mg/kg, AUC 0–12, tumor, median (range), n = 3, after fifth dose of 100 mg/kg BID",396 µM·h
same,AUC(0-t),"in vivo; tumor, po, 200 mg/kg, AUC 0–24, tumor, median (range), n = 3, after third dose of 200 mg/kg QD",1950 µM·h
same,half-life,"in vivo; whole blood, oral",3.9 h
same,AUC(0-t),"in vivo; whole blood, po, 100 mg/kg, AUC 0–12, blood, median (range), n = 3, after fifth dose of 100 mg/kg BID",104 µM·h
same,AUC(0-t),"in vivo; whole blood, po, 200 mg/kg, AUC 0–24, blood, median (range), n = 3, after third dose of 200 mg/kg QD",739 µM·h
same,fluctuation between peak and trough plasma concentrations at steady state,"[4]; patients, doses up to 1800 mg QD, ref EGF10027 protocol",3 fold
same,Cmin,"[4]; previous clinical studies, 1500 mg QD",1350 nM
same,plasma half-life,"[4]; ref EGF10027 protocol, original text",~14 h
same,mutagenicity and clastogenicity,[5],non-mutagenic
same,IC50,ErbB1 tyrosine kinase,10 nM
same,single intravenous dose with no deaths,[6],up to 46 mg/kg
same,single oral dose with no deaths,[6],"up to 2,000 mg/kg"
